Measured values published in ChEMBL document CHEMBL3045484, “Molecular modeling and synthesis of ZINC02765569 derivatives as protein tyrosine phosphatase 1B inhibitors: lead optimization study” (Med Chem Res, 2013).

Columns and labels:
[1] = target: T1, Tyrosine-protein phosphatase non-receptor type 1 (Rattus norvegicus) (UniProt P20417); test: Inhibition of PTP1B in Rattus norvegicus (rat) L6 cells assessed as increase in 2-deoxy-D-[U-14C]-glucose uptake at 50 uM after 18 hr relative to control; format: cell-based
T1 sequence (whole entry): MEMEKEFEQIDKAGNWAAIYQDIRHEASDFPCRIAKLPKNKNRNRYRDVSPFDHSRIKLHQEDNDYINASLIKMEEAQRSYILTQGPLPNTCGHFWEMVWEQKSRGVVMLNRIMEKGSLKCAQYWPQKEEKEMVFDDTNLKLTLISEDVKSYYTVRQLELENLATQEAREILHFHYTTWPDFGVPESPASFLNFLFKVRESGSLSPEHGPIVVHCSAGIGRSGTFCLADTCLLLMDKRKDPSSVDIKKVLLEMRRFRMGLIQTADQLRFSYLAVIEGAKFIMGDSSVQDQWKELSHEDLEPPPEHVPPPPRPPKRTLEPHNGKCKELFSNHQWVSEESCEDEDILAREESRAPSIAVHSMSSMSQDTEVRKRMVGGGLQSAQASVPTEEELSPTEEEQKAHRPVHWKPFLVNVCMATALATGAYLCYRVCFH

[2] = target: T2, Tyrosine-protein phosphatase non-receptor type 1 (Homo sapiens) (UniProt P18031); test: Inhibition of Homo sapiens (human) recombinant PTP1B assessed as decrease in free phosphate release at 10 uM by malachite staining relative to control
T2 sequence (whole entry): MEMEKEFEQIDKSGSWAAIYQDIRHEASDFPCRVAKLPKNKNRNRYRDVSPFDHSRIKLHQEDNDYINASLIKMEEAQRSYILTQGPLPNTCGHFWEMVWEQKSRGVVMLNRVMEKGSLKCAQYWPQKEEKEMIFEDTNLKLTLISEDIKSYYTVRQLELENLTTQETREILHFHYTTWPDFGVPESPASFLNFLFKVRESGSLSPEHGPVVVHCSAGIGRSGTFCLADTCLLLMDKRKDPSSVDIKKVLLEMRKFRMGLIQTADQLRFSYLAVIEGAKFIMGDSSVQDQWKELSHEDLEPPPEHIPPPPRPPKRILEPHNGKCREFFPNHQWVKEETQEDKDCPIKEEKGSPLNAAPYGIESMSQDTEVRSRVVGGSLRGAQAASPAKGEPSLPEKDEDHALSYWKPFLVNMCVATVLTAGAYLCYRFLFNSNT

inhibition [1] | inhibition [2] | Compound
31.4% | 20.9% | Cc1cccc2[nH]c(SCC(=O)Nc3cc(C(=O)O)ccc3Cl)nc12
28.7% | 56.2% | O=C(CSc1nc2ccccc2s1)Nc1cc(C(=O)O)ccc1Cl
22.5% | 18.7% | O=C(CSc1nc2ccccc2[nH]1)Nc1ccc(C(=O)O)cc1
37.6% | 36.6% | O=C(CSc1nc2c([N+](=O)[O-])cccc2[nH]1)Nc1cc(C(=O)O)ccc1Cl
26.6% | 62.7% | COc1cccc2[nH]c(SCC(=O)Nc3cc(C(=O)O)ccc3Cl)nc12
29.2% | 53.9% | O=C(CSc1nc2ccccc2s1)Nc1cc(C(=O)O)ccc1O
58.6% | 23.2% | O=C(CSc1nc2ccccc2[nH]1)Nc1cc(C(=O)O)ccc1O
39.6% | 66.4% | O=C(CSc1nc2ccccc2s1)Nc1ccc(C(=O)O)cc1
28.7% | 35.8% | O=C(CSc1nc2ccccc2[nH]1)Nc1cc(C(=O)O)ccc1Cl
59.2% | 24.2% | O=C(CSc1nc2ccccc2s1)Nc1cccc(C(=O)O)c1
